{"source": "patent US20250263686A1", "about": "“METHODS OF INHIBITING NUCLEASE ACTIVITY, METHODS OF ISOLATING NUCLEI FROM CELLS, AND METHODS FOR EXTENDING DNA” (NATIONAL CHENG KUNG UNIVERSITY, priority 2024, published 2025)", "key": {"TdT [1]": {"molecular_target": "T1, TdT (Bos taurus, UniProt P06526)", "T1 construct": "purchased", "T1 sequence (P06526 whole entry)": "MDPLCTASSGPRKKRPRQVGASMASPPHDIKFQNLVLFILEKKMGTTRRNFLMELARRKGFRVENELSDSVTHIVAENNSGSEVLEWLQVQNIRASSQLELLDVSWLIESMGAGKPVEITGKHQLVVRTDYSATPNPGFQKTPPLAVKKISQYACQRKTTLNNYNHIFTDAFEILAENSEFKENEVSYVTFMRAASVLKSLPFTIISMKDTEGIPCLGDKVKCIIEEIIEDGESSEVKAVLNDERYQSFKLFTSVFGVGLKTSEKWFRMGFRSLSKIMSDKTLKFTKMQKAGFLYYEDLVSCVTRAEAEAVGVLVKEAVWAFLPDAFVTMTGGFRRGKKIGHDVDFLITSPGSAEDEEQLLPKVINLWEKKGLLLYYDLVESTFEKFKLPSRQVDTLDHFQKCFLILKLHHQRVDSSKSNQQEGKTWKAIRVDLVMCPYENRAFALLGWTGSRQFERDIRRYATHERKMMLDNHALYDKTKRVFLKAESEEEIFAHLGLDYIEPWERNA", "test": "TdT tailing of ssDNA oligo, electrophoresis and silver staining", "assay_type": "biochemical", "details": "dATP 2 mM, FIG. 1", "method": "0.5 pmole of an ssDNA oligo (SEQ ID NO: 1) was incubated in 10 μL volumes of various compositions plus dATP (2 mM) and commercial TdT (0.25 μL) at 37° C., 45° C., 55° C., 65° C., 75° C. for 30, 5, 5, 5, 20 minutes, respectively. All the reaction was used for electrophoresis (FIG. 1)."}, "pancreatic nucleases": {"test_system": "pancreatic nucleases", "test": "RNaseAlert fluorescent assay of nuclease activity in crude pancreatic lysate", "assay_type": "biochemical, murine", "details": "for inhibition of nuclease activity by Cu2+ in the presence of chelators: 2 mM CuSO4 plus 2 mM chelator, FIG. 10", "method": "The crude pancreatic lysate was prepared by lyzing 10 mg of murine pancreas in 400 μL of lysis buffer (HEPES pH 7.2 20 mM, NaCl 146 mM, CaCl2 1 mM, MgCl2 21 mM, TWEEN® 20 0.1%, NP-40 0.1%, and digitonin 0.01%). The lysis was performed by bead beating (10 seconds, 4500 rpm) in 2 ml plastic tubes containing 6 glass beads of 2.5-mm diameter. The lysate was subjected to centrifugation at 17,000 RCF for 1 minute before the cleared nuclease-laden supernatant was kept for the assays.\nTo detect the nuclease activity, an RNaseAlert™ oligo made of chimeric DNA-RNA-DNA with a green fluorescence molecule on one end and a quencher on the other (50 nM) was used in 25 μL final reaction volume. The reactions were conducted in the pancreatic lysis buffer with a final volume of 25 μL, containing the specified additives (pancreatic lyate, CuSO4, or ZnSO4) in FIG. 5. After incubating at ambient temperature for 30 minutes, the reactions were diluted with 150 μL of the same buffer, excluding substrates and the lysate. Fluorescence detection was performed in triplicate, with excitation at 490 nm and emission at 520 nm.\nThe RNaseAlert™ oligo (50 nM) was prepared in pancreatic lysis buffer with a final volume of 25 μL, containing the specified additives (pancreatic lysate, CuSO4, or Cu^2+-citric acid at various concentrations) in FIG. 7. After incubating at ambient temperature for 30 minutes, the reactions were diluted to 150 μL with the same buffer, excluding substrates and lysate, for fluorescence quantification in triplicate of 50 μL.\nThe RNaseAlert™ oligo (50 nM) was prepared in pancreatic lysis buffer, either HEPES-SO4 at pH 4.5 or HEPES at pH 7.2, with a final volume of 25 μL, containing the specified additives (pancreatic lysate, Cu^2+, or chelators) and pH levels (pH 4.5 or 7.2) in FIG. 8. After incubating at ambient temperature for 30 minutes, the reactions were diluted to 150 μL with the same buffer, excluding substrates and lysate, for fluorescence quantification in triplicate of 50 μL.\nThe RNaseAlert™ oligo (50 nM) was prepared in the pancreatic lysis buffer to a final volume of 25 μL, containing the specified additives (pancreatic lysate, 2 mM CuSO4, or 2 mM of various chelators), as shown in FIG. 10. After incubating at ambient temperature for 30 minutes, the reactions were diluted to 150 μL with the same buffer, excluding substrates and lysate, for fluorescence quantification in triplicate of 50 μL.\nThe RNaseAlert™ oligo (50 nM) was prepared in either the pancreatic lysis buffer (Buffer P) or a low-pH buffer (Buffer C, composed of 25 mM citrate at pH 3 and 250 mM sucrose) to a final volume of 25 μL. The preparation contained the specified additives (pancreatic lysate, 1% DEPC, and Cu^2+-citric acid at specified concentrations) and is depicted in FIG. 11. After incubating at ambient temperature for 30 minutes, the reactions were diluted to 150 μL with the same buffer, excluding substrates and lysate, for fluorescence quantification in triplicate of 50 μL."}, "TdT [2]": {"molecular_target": "T1, TdT", "test": "TdT tailing of 3' recessed-end dsDNA substrate, electrophoresis and silver staining", "assay_type": "biochemical", "details": "37° C. for 60 minutes; for TdT tailing of 3' recessed-end substrate, alternative ingredients: compared with dATP and Co2+ buffer, FIG. 3", "method": "3′ recessed dsDNA was prepared by annealing 25 μM each of SEQ ID NO: 2 and SEQ ID NO: 3 in Tris-HCl pH 8 (25 mM), NaCl (12.5 mM), and EDTA (0.25 mM). 2.5 pmole of the annealed substrate was incubated in 20 μL of reaction mixtures containing PMSF (0.5 mM), dATP (2 mM), TRITON® X-100 (0.1%), Tris-acetate pH 7.9 (20 mM), and either Mg^2+ or Co^2+ in chloride salt form (M^2+, 0.75 mM) as tailing cofactors, with (+) or without (−) of TdT (0.25 μL) at 37° C. for 60 minutes followed by 75° C. for 20 minutes. Subsequently, all the reactions were loaded for electrophoresis.\n5 pmole of the 3′ recessed-end substrate as in Example 2 was incubated in 10 μL of reaction containing HEPES (H) or Tris-acetate (T) pH 7.9 (20 mM), dATP (dA) or dGTP (dG) (2 mM), CoCl2 (Co) or MnCl2 (Mn) (0.75 or 2 mM), DTT (0 or 0.2 mM), and TdT (0 or 0.25 μL) at 37° C. for 60 minutes followed by 75° C. for 20 minutes before loading half of the samples for electrophoresis (FIG. 3)."}, "[3]": {"test": "Precipitation by optical density at 600 nm, with or without bovine serum albumin", "assay_type": "physicochemical", "details": "for protein aggregation / precipitation with bovine serum albumin (visual and OD600): BSA 10 g/L, pH 4.5, 5.5 and 7.2, FIG. 6", "method": "A total of 180 μL of reactions per well were prepared at ambient temperature in a 96-well plate. These reactions contained various buffers (none or 100 mM) at specified pH levels, Cu^2+ salts in either sulfate (no pH adjustment) or citrate form (at pH 4.5 or 7.2, as specified) at the indicated concentrations, and bovine serum albumin (10 g/L final concentration) in FIG. 6. The reactions were prepared in triplicate, photographed directly (FIG. 6, lower), and measured for optical density at 600 nm (FIG. 6, upper) to indicate precipitation."}, "micrococcal nuclease": {"molecular_target": "micrococcal nuclease (Staphylococcus aureus, UniProt P00644)", "test": "RNaseAlert fluorescent assay with micrococcal nuclease", "assay_type": "biochemical", "details": "micrococcal nuclease 200 gel units, 10 minutes at ambient temperature, FIG. 9", "method": "(§1) The RNaseAlert™ oligo (50 nM) was prepared in pancreatic lysis buffer with a final volume of 25 μL, containing the specified additives (pancreatic lysate, Cu^2+-citric acid, or various nucleases) in FIG. 9. After incubating at ambient temperature for 10 minutes, the reactions were diluted to 150 μL with the same buffer, excluding substrates and lysate, for fluorescence quantification in triplicate of 50 μL."}, "benzonase": {"molecular_target": "benzonase (Serratia marcescens, UniProt P13717)", "sequence (P13717 22-266)": "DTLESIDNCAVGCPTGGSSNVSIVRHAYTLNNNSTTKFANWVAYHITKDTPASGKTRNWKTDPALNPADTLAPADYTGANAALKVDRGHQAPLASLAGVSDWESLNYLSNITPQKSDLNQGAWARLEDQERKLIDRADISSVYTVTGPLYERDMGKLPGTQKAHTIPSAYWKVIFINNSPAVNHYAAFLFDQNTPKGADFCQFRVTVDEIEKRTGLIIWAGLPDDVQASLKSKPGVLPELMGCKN", "test": "RNaseAlert fluorescent assay with benzonase", "assay_type": "biochemical", "details": "benzonase 20 units, 10 minutes at ambient temperature, FIG. 9", "method": "as §1"}, "pancreatic nuclease": {"test_system": "pancreatic nuclease", "test": "RT-qPCR of nuclear mRNA (GAPDH, PSMB4) in HEK293 nuclei exposed to pancreatic lysate", "assay_type": "biochemical, murine", "details": "10 mM complex, pH 4.5 and 7.2, HEK293 nuclei, FIG. 12", "method": "To mimic nuclear extraction by direct lysis of challenging organs, HEK293 cells were lysed in the presence of nuclease-rich pancreatic lysate, with or without the Cu^2+-chelator complex: Thirty μL of pancreatic lysis buffer containing 50 mM HEPES at pH 4.5 or 7.2, 1× Halt proteinase inhibitor, 2 μL of pancreatic lysate, and either 0 mM (control) or 10 mM of Cu^2+-citric acid complex from 250 mM stock solutions (at pH 4.5 and 7.2, respectively) were prepared on ice. 20,000 HEK293T cells in 2 μL of PBS were added to the lysis buffer, and the nuclei were released by rotating the cells in the fridge for 15 minutes. The nuclear pellets were obtained by centrifugation in a swing-bucket rotor at 1,000 g for 1 minute, washed twice with the same buffers excluding HALT, with the detergent in the wash buffer removed and replaced with 0.05% PVA. The washed nuclei were lysed with 15 μL of lysis buffer containing 0.2% TX-100 and […] proteinase K by vortexing at 1,200 rpm for 30 minutes at 37° C. The lysate was divided equally into 20 μL RT reactions, each containing RNA lysates, 0.2 μL of PMSF (50 mM in DMSO), 1× RT buffer (Tris-HCl pH 8.3, 50 mM; KCl, 75 mM; MgCl2, 3 mM; DTT, 5 mM), dNTPs (final concentration 0.5 mM each), homemade rat RNase inhibitor (100 ng), PVA (0.05%), T23VN (1 μM), and either 0 (for genomic DNA control) or 100 ng of homemade reverse transcriptase. […]"}, "RNase A": {"molecular_target": "T2, RNase A (Bos taurus, UniProt P61823)", "T2 sequence (P61823 27-150)": "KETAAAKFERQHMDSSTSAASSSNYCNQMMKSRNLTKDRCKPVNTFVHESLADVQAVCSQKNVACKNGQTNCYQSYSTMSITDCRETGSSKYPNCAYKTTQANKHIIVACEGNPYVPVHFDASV", "test": "RNaseAlert fluorescent assay with RNase A", "assay_type": "biochemical", "details": "RNase A 50 ng, 10 minutes at ambient temperature, FIG. 9", "method": "as §1"}}, "data": [{"smiles": "CC(=O)[O-].CC(=O)[O-].[Mg+2]", "note": "[Mg^2+, magnesium acetate]", "values": [{"measurement": "TdT poly(dA) tailing of ssDNA substrate", "setting": "TdT [1]", "result": "yielded shorter tails"}]}, {"smiles": "O=C(O)CN(CC(=O)O)CC(=O)O.[Cu]", "note": "[Cu^2+ with nitrilotriacetic acid (NTA), copper; 2-[bis(carboxylatomethyl)amino]acetate;hydron]", "values": [{"measurement": "inhibition of nuclease activity by Cu2+ in the presence of chelators", "setting": "pancreatic nucleases; 30 minutes", "result": "still inhibited nuclease activity"}]}, {"smiles": "[Cl][Co][Cl]", "note": "[Co^2+, cobalt chloride]", "values": [{"measurement": "TdT tailing of 3' recessed-end substrate, Co2+ versus Mg2+", "setting": "TdT [2]; M2+ 0.75 mM, dATP 2 mM, FIG. 2", "result": "nearly complete upshift of the substrate"}, {"measurement": "TdT poly(dA) tailing of ssDNA substrate", "setting": "TdT [1]", "result": "could replace Mg^2+ for tailing the ssDNA"}]}, {"smiles": "O[C@H](CS)[C@H](O)CS", "note": "(racemic) [DTT, dithiothreitol]", "values": [{"measurement": "TdT tailing of 3' recessed-end substrate, alternative ingredients", "setting": "TdT [2]", "result": "does not affect the results"}]}, {"smiles": "CC(=O)[O-].[K+]", "note": "[K^+, potassium acetate]", "values": [{"measurement": "TdT poly(dA) tailing of ssDNA substrate", "setting": "TdT [1]", "result": "detrimental to tailing"}]}, {"smiles": "O=S(=O)([O-])[O-].[Cu+2]", "note": "[Cu^2+, CuSO4]", "values": [{"measurement": "protein aggregation / precipitation with bovine serum albumin (visual and OD600)", "setting": "[3]", "result": "severe protein aggregation at pH above 5.5"}, {"measurement": "solubility in water (precipitation, OD600)", "setting": "[3]; neutral pH, no protein, concentrations as low as 1 mM, FIG. 6", "result": "only minimally soluble"}, {"measurement": "nuclease activity in pancreatic lysate", "setting": "pancreatic nucleases; CuSO4 in pancreatic lysis buffer pH 7.2, 30 minutes at ambient temperature, FIG. 5", "result": "effectively diminished the nuclease activity"}]}, {"smiles": "Nc1nc2c(ncn2[C@H]2C[C@H](O)[C@@H](COP(=O)(O)OP(=O)(O)OP(=O)(O)O)O2)c(=O)[nH]1", "note": "[dGTP]", "values": [{"measurement": "TdT tailing of 3' recessed-end substrate, alternative ingredients", "setting": "TdT [2]", "result": "detrimental"}]}, {"smiles": "[Cl][Mn][Cl]", "note": "[Mn^2+, MnCl2]", "values": [{"measurement": "TdT tailing of 3' recessed-end substrate, alternative ingredients", "setting": "TdT [2]", "result": "not to improve"}]}, {"smiles": "O=C(O)CC(O)(CC(=O)O)C(=O)O.[Cu].[Cu]", "note": "[Cu^2+-citric acid complex, dicopper; 2-hydroxypropane-1,2,3-tricarboxylic acid]", "values": [{"measurement": "blocking of micrococcal nuclease activity", "setting": "micrococcal nuclease", "result": "capable of blocking the activities"}, {"measurement": "protein aggregation / precipitation with bovine serum albumin (visual and OD600)", "setting": "[3]", "result": "resolved this issue at all pH values tested"}, {"measurement": "inhibition of nuclease activity by Cu2+ in the presence of chelators", "setting": "pancreatic nucleases; 30 minutes", "result": "still inhibited nuclease activity"}, {"measurement": "RNase inhibition compared with low-pH buffer and DEPC", "setting": "pancreatic nucleases; 10 mM complex, 30 minutes, FIG. 11", "result": "comparable RNase inhibition to the low-pH buffer"}, {"measurement": "nuclease-blocking activity at acidic and neutral pH", "setting": "pancreatic nucleases; pH 4.5 and pH 7.2, FIG. 8", "result": "active at both acidic and neutral pH"}, {"measurement": "blocking of pancreatic nuclease activity, chelated versus unchelated Cu2+", "setting": "pancreatic nucleases; various concentrations, 30 minutes at ambient temperature, FIG. 7", "result": "still capable of blocking pancreatic nuclease activity in a dose-dependent manner, similar or even more potent to the unchelated form"}, {"measurement": "blocking of benzonase activity", "setting": "benzonase", "result": "capable of blocking the activities"}, {"measurement": "protection of nuclear RNA from degradation by pancreatic nuclease", "setting": "pancreatic nuclease", "result": "necessary to protect and retain nuclear RNA from complete degradation"}, {"measurement": "blocking of RNase A activity", "setting": "RNase A", "result": "capable of blocking the activities"}]}]}
